Assays:
[1] = system: bacteria inoculated into the medium; settings: nicotinic acid 0.1 M; three to four days
Procedure: (§1) The base ISTOR medium has the following composition:
(§2) The medium was prepared in potassium phosphate buffer at pH 5.7.

fungi tested = settings: nicotinic acid 0.1 M; three to four days
Procedure: as §1, §2

Structure (SMILES): O=C(O)c1cccnc1 [nicotinic acid]
- growth of bacteria [1]: none of the bacteria inoculated into the medium grew
- growth of fungi (fungi tested): all of the fungi tested exhibited growth
- solubility in water: not very soluble in water

Source: patent publication US20050042711A1, “Field test for fungi” (GEORGE MASON UNIVERSITY, priority 2003, published 2005)
